Structures can show the parent of a compound that is named as a salt.
Tests used:
NRF2/Keap1 = target: T1, NRF2/Keap1 (Homo sapiens, UniProt Q14145); assay: NRF2-Keap1 TR-FRET Low Protein Assay (full length NRF2 and full length Keap1); format: binding; conditions: low protein: 1.25 nM Keap1 FlagHis, 2.5 nM biotin-NRF2 added
T1 construct: full length NRF2 protein and full length Keap1 protein (Keap1 exists a dimer) are used
Text: In the NRF2-Keap1 TR-FRET (time-resolved fluorescence resonance energy transfer) low protein assay, full length NRF2 protein and full length Keap1 protein (Keap1 exists a dimer) are used. The assay detects a compound's ability to displace the binding of Keap1 FlagHis with biotinylated Avi-NRF2 protein. Biotin-NRF2 binds to streptavidin-europium (a component of the detection mix) and Keap1 FlagHis is recognized by anti-Flag APC (allophycocyanin) antibody (also a component of the detection mix). If binding occurs between the two proteins, there will be an energy transfer from the Eu+3 (donor) at 615 nm to the APC (acceptor) at 665 nm. A potential NRF2 inhibitor will cause a reduction in the TR-FRET signal by interfering with the binding of Keap1 to NRF2.
Ten nanoliters of 100× compound dose response curves (serial 3-fold dilutions) in DMSO are stamped using an Echo liquid handling system (Labcyte) into 384-well, low volume, black assay plates (Greiner, #784076), with DMSO in columns 6 and 18. An additional 90 nl DMSO is added to each well, to bring the total volume to 100 nl per well. The top concentration of compound is located in columns 1 and 13, with the serial dilutions going across the row. All reagents are diluted in assay buffer (50 mM Tris, pH 8.0, 5 mM MgCl2, 100 mM NaCl, 0.005% BSA, 1 mM DTT, and 2 mM CHAPS. The BSA, DTT, and CHAPS are added to the assay buffer on the day of assay. Using a Multidrop Combi (Thermo Electron Corporation) equipped with a metal tip dispenser, 5 ul of 1.25 nM Keap1 FlagHis protein is added to all wells of the compound plate, with the exception of the wells in column 18. Wells in column 18 receive 5 ul of assay buffer instead. Plates are centrifuged at 500 rpm for 1 minute, covered with a plate lid, and incubated at 37° C. for 2.25 hours. Plates are then removed from the incubator and allowed to cool to RT for 15 minutes. Five microliters of 2.5 nM biotin-NRF2 protein is then added to all wells of the plates and the plates are spun at 500 rpm for 1 minute, followed by incubating at 4° C. for 1.25 hours. The plates are then allowed to warm to RT for 15 minutes, followed by the addition of 10 ul of detection mix (1 nM Streptavidin Eu+ W1024 and 5 ug/ml mouse anti-DYKDDDDK IgG conjugated to SureLight APC antibody; both from Columbia Biosciences) to all wells. Plates are spun at 500 rpm for 1 minute, incubated for 1 hour at RT, and read on an Envision plate reader using a 320 nm excitation filter and 615 nm and 665 nm emission filters. Compound response (% inhibition) and potency (pIC50) are calculated based on the ratio of the two emissions (665 nm/615 nm) and then the transformed data is normalized against controls in the assay (control 1=1% DMSO in the presence of NRF2 and Keap1 protein and control 2=1% DMSO in the presence of only the NRF2 protein). Data analysis is handled using the software package Abase XE (Surrey, United Kingdom). The % inhibition values are calculated from the ratio (transformed) data by the equation: 100−(100*(compound response-average control 2)/(average control 1−average control 2)). For calculation of pIC50s, Abase XE uses a four parameter equation.

[1] = system: NQO1 specific enzyme activity in BEAS-2B cells; assay: BEAS-2B NQO1 MTT Assay; format: cell-based; conditions: Homo sapiens, BEAS-2B, 48 h, NQO1 specific activity induction
Text: NAD(P)H:quinone oxidoreductase 1 (NQO1), also called DT diaphorase, is a homodimeric FAD-containing enzyme that catalyzes obligatory NAD(P)H-dependent two-electron reductions of quinones and protects cells against the toxic and neoplastic effects of free radicals and reactive oxygen species arising from one-electron reductions. The transcription of NQO1 is finely regulated by NRF2, and thus NQO1 activity is a good marker for NRF2 activation. On day one, frozen BEAS-2B cells (ATCC) are thawed in a water bath, counted, and re-suspended at a concentration of 250,000 cells/mL. Fifty microliters of cells are plated in 384 well black clear-bottomed plates. Plates are incubated at 37° C., 5% CO2 overnight. On day two, plates are centrifuged and 50 nL of compound or controls are added to the cells. Plates are then incubated at 37° C., 5% CO2 for 48 hours. On day four, medium is aspirated from the plate and crude cell lysates are made by adding 13 uL of 1× Cell Signaling Technologies lysis buffer with 1 Complete, Mini, EDTA-free Protease Inhibitor Tablet (Roche) for each 10 mL of lysis buffer. After lysis plates are incubated for 20 minutes at room temperature. Two microliters of lysate are removed for use in Cell Titer Glo assay (Promega) and MTT cocktail is prepared (Prochaska et. al. 1998) for measurement of NQO1 activity. Fifty microliters of MTT cocktail is added to each well, plate is centrifuged, and analyzed on an Envision plate reader (Perkin Elmer) using Absorbance 570 nm label for 30 minutes. Product formation is measured kinetically and the pEC50 of NQO1 specific activity induction is calculated by plotting the change in absorbance (Delta OD/min) versus the log of compound concentration followed by 3-parameter fitting.

Keap1/NRF2 = target: T2, Keap1/NRF2 (Homo sapiens, UniProt Q14145); assay: NRF2-Keap1 FP Assay (Kelch domain (321-609) of Keap1, TAMRA-labeled NRF2 ETGE peptide); format: binding; conditions: Keap1 (321-609) 20 nM, Tamra labeled peptide 8 nM
T2 construct: Keap1 (321-609) is diluted to 40 nM (2×) in 1× assay buffer
Text: One model for the NRF2-Keap1 interaction is through two binding sites in the Neh2 domain on NRF2. The two sites are referred to as the DLG binding motif (latch domain, uM affinity) and the ETGE binding motif (hinge domain, nM affinity). The Keap1 protein consists of an N-terminal region (NTR), a broad complex, tramtrack, and brick a′ brac domain (BTB), an intervening region (IVR), a double glycine repeat domain (DGR or Kelch), and a C-terminal region. The DLG and ETGE motifs of NRF2's Neh2 domain bind to the Kelch domain of Keap1 at different affinities. In the Keap1 Kelch fluorescence polarization (FP) assay, a TAMRA-labeled 16 mer peptide (AFFAQLQLDEETGEFL) containing the ETGE motif of NRF2 and the Kelch domain (321-609) of Keap1 is used. The assay determines if a compound interferes with the binding between Keap1 […] and the TAMRA-labeled peptide. Binding of TAMRA-labeled NRF2 peptide to Keap1 (321-609) results in a high FP signal. If a compound interferes with the binding between the peptide and the protein, it will cause the assay signal to decrease. Thus, assay signal is inversely proportional to binding inhibition.
100 nl of 100× compound dose response curves (serial 3-fold dilutions) in DMSO are stamped using an Echo liquid handling system (Labcyte) into 384-well low volume black assay plates (Greiner, #784076), with DMSO in columns 6 and 18. The top concentration of compound is located in columns 1 and 13. Keap1 (321-609) is diluted to 40 nM (2×) in 1× assay buffer (50 mM Tris, pH 8.0, 100 mM NaCl, 5 mM MgCl2, 1 mM DTT, 2 mM CHAPS, and 0.005% BSA) and 5 ul is added using a Multidrop Combi (Thermo Electron Corporation) equipped with a metal tip dispenser to all wells of the compound plate, except column 18. Column 18 receives only 5 ul of assay buffer. Immediately, 5 uL of 16 nM (2×) of Tamra labeled peptide (AFFAQLQLDEETGEFL, 21st Century Biochemicals) is added to all wells of the plate. The plates are spun at 500 rpm for 1 min, incubated for 1 hr at room temperature, and read on an Analyst GT (Molecular Devices) equipped with excitation (530/25 nm) and emission (580/10 nm) filters designed for Tamra probes. A 561 nm dichroic mirror is also used in the Analyst. The final assay concentrations of Keap1 (321-609) and Tamra labeled peptide are 20 nM and 8 nM, respectively. Fluorescence measurements, represented as mP, are used in the transformation of the data. Compound activity is calculated based on percent inhibition, normalized against controls in the assay (Control 1 contains the Tamra peptide and Keap1 (321-609) together (0% response) and control 2 contains the Tamra peptide alone (100% response)). Data analysis is handled using the software package Abase XE (Surrey, United Kingdom. The % inhibition values are calculated by the equation: 100−(100*((compound response-average control 2)/(average control 1−average control 2))). For calculation of pIC50s, Abase XE uses a four parameter equation.

T2 sequence (Q14145 321-609): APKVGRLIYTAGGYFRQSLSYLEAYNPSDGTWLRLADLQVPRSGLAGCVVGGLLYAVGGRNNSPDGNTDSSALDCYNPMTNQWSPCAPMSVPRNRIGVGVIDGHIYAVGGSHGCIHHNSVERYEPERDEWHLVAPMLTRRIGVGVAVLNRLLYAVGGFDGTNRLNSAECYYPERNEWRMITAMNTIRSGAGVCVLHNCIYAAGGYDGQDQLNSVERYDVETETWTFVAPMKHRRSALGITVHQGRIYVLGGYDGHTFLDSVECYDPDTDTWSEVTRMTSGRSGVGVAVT
T1 sequence (Q14145 whole entry): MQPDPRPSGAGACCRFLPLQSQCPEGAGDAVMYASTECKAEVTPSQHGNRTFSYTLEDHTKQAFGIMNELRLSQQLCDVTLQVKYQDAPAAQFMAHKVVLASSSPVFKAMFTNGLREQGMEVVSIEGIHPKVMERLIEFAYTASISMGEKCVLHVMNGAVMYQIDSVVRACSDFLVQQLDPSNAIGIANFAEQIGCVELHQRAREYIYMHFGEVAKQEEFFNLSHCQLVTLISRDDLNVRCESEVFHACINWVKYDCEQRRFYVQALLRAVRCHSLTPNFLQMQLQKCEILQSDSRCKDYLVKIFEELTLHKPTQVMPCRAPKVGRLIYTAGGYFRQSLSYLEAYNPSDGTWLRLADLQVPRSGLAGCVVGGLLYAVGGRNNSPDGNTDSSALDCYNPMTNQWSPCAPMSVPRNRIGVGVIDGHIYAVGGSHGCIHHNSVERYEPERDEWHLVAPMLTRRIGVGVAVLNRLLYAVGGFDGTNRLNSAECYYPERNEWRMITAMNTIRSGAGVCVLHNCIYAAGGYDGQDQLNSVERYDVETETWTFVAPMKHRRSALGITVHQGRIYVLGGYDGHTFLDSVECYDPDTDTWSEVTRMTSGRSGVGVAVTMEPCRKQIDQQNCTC

Row | Compound | IC50 (NRF2/Keap1) [µM] | EC50 [1] [µM] | IC50 (Keap1/NRF2) [µM]
1 | Cn1cc([C@@H]2C[C@H]2c2c(C(=O)O)cnn2-c2cccc(N3CCCC(CCC4CCCCC4)C3)c2)nn1 (stereo partly drawn) [Example 35, 1-(3-(3-(2-cyclohexylethyl)piperidin-1-yl)phenyl)-5-((1R,2R)-2-(1-methyl-1H-1,2,3-triazol-4-yl)cyclopropyl)-1H-pyrazole-4-carboxylic Acid] | 0.01 to 0.1 | 0.001 to 0.01 | 0.01 to 0.1
2 | Cn1cc([C@@H]2C[C@H]2c2c(C(=O)O)cnn2-c2cccc(N3CCC[C@H](CCC4CCCCC4)C3)c2)nn1 [Example 36c, 1-(3-((S)-3-(2-Cyclohexylethyl)piperidin-1-yl)phenyl)-5-((1R,2R)-2-(1-methyl-1H-1,2,3-triazol-4-yl)cyclopropyl)-1H-pyrazole-4-carboxylic Acid] | 0.01 to 0.1 | 0.01 to 0.1 | 0.01 to 0.1
3 | CCC[C@@H]1CCCCN1C(=O)N1CCCC(c2cccc(-n3ncc(C(=O)O)c3[C@@H]3C[C@H]3c3cn(C)nn3)c2)C1 (stereo partly drawn) [Example 34, 5-((1R,2R)-2-(1-Methyl-1H-1,2,3-triazol-4-yl)cyclopropyl)-1-(3-(1-((R)-2-propylpiperidine-1-carbonyl)piperidin-3-yl)phenyl)-1H-pyrazole-4-carboxylic Acid] | 0.01 to 0.1 | 1 to 10 | 0.1 to 1
4 | Cn1cc([C@@H]2C[C@H]2c2c(C(=O)O)cnn2-c2cccc(N3CCC[C@@H](OCC4CCCCC4)C3)c2)nn1 [Example 43, 1-(3-((R)-3-(Cyclohexylmethoxy)piperidin-1-yl)phenyl)-5-((1R,2R)-2-(1-methyl-1H-1,2,3-triazol-4-yl)cyclopropyl)-1H-pyrazole-4-carboxylic Acid] | 0.01 to 0.1 | 0.1 to 1 | 0.1 to 1
5 | Cn1cc([C@@H]2C[C@H]2c2c(C(=O)O)cnn2-c2cccc(C3CCCN(C(=O)c4ccccc4)C3)c2)nn1 (stereo partly drawn) [Example 33, 1-(3-(1-benzoylpiperidin-3-yl)phenyl)-5-((1R,2R)-2-(1-methyl-1H-1,2,3-triazol-4-yl)cyclopropyl)-1H-pyrazole-4-carboxylic Acid] | 0.01 to 0.1 | 1 to 10 | 0.1 to 1
6 | CC(C)(C)OC(=O)N1CCCC(c2cccc(-n3ncc(C(=O)O)c3C3CC3)c2)C1 (stereo not drawn) [Example 27, 1-(3-(1-(tert-Butoxycarbonyl)piperidin-3-yl)phenyl)-5-cyclopropyl-1H-pyrazole-4-carboxylic Acid] | 1 to 10 | 1 to 10 | > 10
7 | Cn1cc([C@@H]2C[C@H]2c2c(C(=O)O)cnn2-c2cccc(C3CCCN(CCc4ccccc4)C3)c2)nn1 (stereo partly drawn) [Example 29, 5-((1R,2R)-2-(1-Methyl-1H-1,2,3-triazol-4-yl)cyclopropyl)-1-(3-(1-phenethylpiperidin-3-yl)phenyl)-1H-pyrazole-4-carboxylic Acid, Hydrochloride] | 0.01 to 0.1 | 1 to 10 | 0.1 to 1
8 | Cn1cc([C@@H]2C[C@H]2c2c(C(=O)O)cnn2-c2cccc(C3CCCN(C(=O)CC4CCCCC4)C3)c2)nn1 (stereo partly drawn) [Example 31, 1-(3-(1-(2-cyclohexylacetyl)piperidin-3-yl)phenyl)-5-((1R,2R)-2-(1-methyl-1H-1,2,3-triazol-4-yl)cyclopropyl)-1H-pyrazole-4-carboxylic Acid] | 0.01 to 0.1 | 0.1 to 1 | 0.1 to 1
9 | Cn1cc([C@@H]2C[C@H]2c2c(C(=O)O)cnn2-c2cccc(N3CCC[C@@H](CCC4CCCCC4)C3)c2)nn1 [Example 36d, 1-(3-((R)-3-(2-cyclohexylethyl)piperidin-1-yl)phenyl)-5-((1R,2R)-2-(1-methyl-1H-1,2,3-triazol-4-yl)cyclopropyl)-1H-pyrazole-4-carboxylic Acid] | 0.01 to 0.1 | 0.001 to 0.01 | 0.01 to 0.1
10 | O=C(O)c1cnn(-c2cccc(C3CCCN(CC4CCCCC4)C3)c2)c1C1CC1 (stereo not drawn) [Example 28, 1-(3-(1-(cyclohexylmethyl)piperidin-3-yl)phenyl)-5-cyclopropyl-1H-pyrazole-4-carboxylic Acid, Hydrochloride] | 1 to 10 | 1 to 10 | > 10

Source: US10351530B2, “Arylcyclohexyl pyrazoles as NRF2 regulators” (GlaxoSmithKline Intellectual Property Development Limited, priority 2015, dated 2019)
